Assay results from patent US20260234403A1, “PHOTOACTIVE FLUORESCENT COMPOUNDS AND USE THEREOF FOR LABELING OF PROTEINS” (EIKON THERAPEUTICS, INC., priority 2023, published 2026).

Tested on: Wild-type (WT) U2OS cells
Assay: Reduction in nonspecific labeling of WT cells (number of tracks vs PA-JF549)
Type: cell-based
Settings: 100 nM, 1 hr, ratio with PA-JF549 in the numerator
Procedure: Using the methods described in Tables 4a and 4b above, labelling specificity of the compound of Examples 1-28 was measured and compared to PA-JF549. U2OS cells wild type or expressing ER-HaloTag fusion were incubated with PA-JF549 or Examples 1-28 for 1 hr. […] Labeling specificity, as measured by the fold reduction in nonspecific labeling of WT cells, was calculated by number of tracks measured in WT cells for Examples 1-28 compared to the number of tracks in WT cells for PA-JF549, expressed as the ratio with PA-JF549 in the numerator.

[1] = Table 4b, Example 19 with 642 nm light

Compound	Fold reduction in nonspecific labeling (Table 4a)	Fold reduction in nonspecific labeling [1]
[N-]=[N+]=C1C(=O)c2ccc(C(=O)NCCOCCOCCCCCCCl)cc2C12c1ccc(N3CC(C(=O)N4CCCC4)C3)cc1Oc1cc(N3CC(C(=O)N4CCCC4)C3)ccc12 [Example 10, N-(2-(2-((6-chlorohexyl)oxy)ethoxy)ethyl)-2-diazo-3-oxo-3′,6′-bis(3-(pyrrolidine-1-carbonyl)azetidin-1-yl)-2,3-dihydrospiro[indene-1,9′-xanthene]-6-carboxamide]	5-10	5-10
CN(CCOCCOCCCCCCCl)C(=O)c1ccc2c(c1)C1(C(=[N+]=[N-])C2=O)c2ccc(N3CCC3)cc2Oc2cc(N3CCC3)ccc21 [Example 8, 3′,6′-di(azetidin-1-yl)-N-(2-(2-((6-chlorohexyl)oxy)ethoxy)ethyl)-2-diazo-N-methyl-3-oxo-2,3-dihydrospiro[indene-1,9′-xanthene]-6-carboxamide]	5-10	5-10
CN1CC2CC(C1)N2c1ccc2c(c1)Oc1cc(N3C4CC3CN(C)C4)ccc1C21C(=[N+]=[N-])C(=O)c2ccc(C(=O)NCCOCCOCCCCCCCl)cc21 (stereo not drawn) [Example 18, N-(2-(2-((6-chlorohexyl)oxy)ethoxy)ethyl)-2-diazo-3′,6′-bis(3-methyl-3,6-diazabicyclo[3.1.1]heptan-6-yl)-3-oxo-2,3-dihydrospiro[indene-1,9′-xanthene]-6-carboxamide]	>10	>10
CN(C)C(=O)C1CN(c2ccc3c(c2)Oc2cc(N4CC(C(=O)N(C)C)C4)ccc2C32C(=[N+]=[N-])C(=O)c3ccc(C(=O)NCc4ccc(COc5nc(N)nc6nc[nH]c56)cc4)cc32)C1 [Example 5, 1,1′-(6-((4-(((2-amino-7H-purin-6-yl)oxy)methyl)benzyl)carbamoyl)-2-diazo-3-oxo-2,3-dihydrospiro[indene-1,9′-xanthene]-3′,6′-diyl)bis(N,N-dimethylazetidine-3-carboxamide)]	>10	>10
(E)-3′,6′-di(azetidin-1-yl)-6-(4-(2-((6-chlorohexyl)oxy)ethoxy)but-1-en-1-yl)-2-diazospiro[indene-1,9′-xanthen]-3(2H)-one and (Z)-3′,6′-di(azetidin-1-yl)-6-(4-(2-((6-chlorohexyl)oxy)ethoxy)but-1-en-1-yl)-2-diazospiro[indene-1,9′-xanthen]-3(2H)-one [Example 23]	–	>10
CN1CCN(C(=O)C2CN(c3ccc4c(c3)Oc3cc(N5CC(C(=O)N6CCN(C)CC6)C5)ccc3C43C(=[N+]=[N-])C(=O)c4ccc(C(=O)NCCOCCOCCCCCCCl)cc43)C2)CC1 [Example 11, N-(2-(2-((6-chlorohexyl)oxy)ethoxy)ethyl)-2-diazo-3′,6′-bis(3-(4-methylpiperazine-1-carbonyl)azetidin-1-yl)-3-oxo-2,3-dihydrospiro[indene-1,9′-xanthene]-6-carboxamide]	1-5	1-5
CNC(=O)C1CN(c2ccc3c(c2)Oc2cc(N4CC(C(=O)NC)C4)ccc2C32C(=[N+]=[N-])C(=O)c3ccc(C(=O)NCCOCCOCCCCCCCl)cc32)C1 [Example 12, 1,1′-(6-((2-(2-((6-chlorohexyl)oxy)ethoxy)ethyl)carbamoyl)-2-diazo-3-oxo-2,3-dihydrospiro[indene-1,9′-xanthene]-3′,6′-diyl)bis(N-methylazetidine-3-carboxamide)]	>10	>10
CN(CCOCCOCCCCCCCl)Cc1ccc2c(c1)C1(C(=[N+]=[N-])C2=O)c2ccc(N3CCC3)cc2Oc2cc(N3CCC3)ccc21 [Example 26, 3′,6′-di(azetidin-1-yl)-6-(((2-(2-((6-chlorohexyl)oxy)ethoxy)ethyl)(methyl)amino)methyl)-2-diazospiro[indene-1,9′-xanthen]-3(2H)-one]	–	<1
[N-]=[N+]=C1C(=O)c2ccc(OCCCOCCOCCCCCCCl)cc2C12c1ccc(N3CCC3)cc1Oc1cc(N3CCC3)ccc12 [Example 25, 3′,6′-di(azetidin-1-yl)-6-(3-(2-((6-chlorohexyl)oxy)ethoxy)propoxy)-2-diazospiro[indene-1,9′-xanthen]-3(2H)-one]	–	<1
CN(C)C1CN(c2ccc3c(c2)Oc2cc(N4CC(N(C)C)C4)ccc2C32C(=[N+]=[N-])C(=O)c3ccc(C(=O)NCCOCCOCCCCCCCl)cc32)C1 [Example 13, N-(2-(2-((6-chlorohexyl)oxy)ethoxy)ethyl)-2-diazo-3′,6′-bis(3-(dimethylamino)azetidin-1-yl)-3-oxo-2,3-dihydrospiro[indene-1,9′-xanthene]-6-carboxamide]	5-10	5-10
[N-]=[N+]=C1C(=O)c2ccc(C(=O)NCCOCCOCCCCCCCl)cc2C12c1ccc(N3CC[C@@H]3CO)cc1Oc1cc(N3CC[C@@H]3CO)ccc12 [Example 15, N-(2-(2-((6-chlorohexyl)oxy)ethoxy)ethyl)-2-diazo-3′,6′-bis((R)-2-(hydroxymethyl)azetidin-1-yl)-3-oxo-2,3-dihydrospiro[indene-1,9′-xanthene]-6-carboxamide]	5-10	5-10
[N-]=[N+]=C1C(=O)c2ccc(NC(=O)CCOCCOCCCCCCCl)cc2C12c1ccc(N3CCC3)cc1Oc1cc(N3CCC3)ccc12 [Example 22, 3-(2-((6-chlorohexyl)oxy)ethoxy)-N-(3′,6′-di(azetidin-1-yl)-2-diazo-3-oxo-2,3-dihydrospiro[indene-1,9′-xanthen]-6-yl)propanamide]	–	5-10
CN(C)C(=O)C1CN(c2ccc3c(c2)[Si](C)(C)c2cc(N4CC(C(=O)N(C)C)C4)ccc2C32C(=[N+]=[N-])C(=O)c3ccc(C(=O)NCCOCCOCCCCCCCl)cc32)C1 [Example 19, 1,1′-(6′-((2-(2-((6-chlorohexyl)oxy)ethoxy)ethyl)carbamoyl)-2′-diazo-5,5-dimethyl-3′-oxo-2′,3′-dihydro-5H-spiro[dibenzo[b,e]siline-10,1′-indene]-3,7-diyl)bis(N,N-dimethylazetidine-3-carboxamide)]	–	>10
O=C1OC2(c3ccc(N4CCC4)cc3Oc3cc(N4CCC4)ccc32)c2cc(NCCOCCOCCCCCCCl)ccc21 [Example 21, 3′,6′-di(azetidin-1-yl)-6-((2-(2-((6-chlorohexyl)oxy)ethoxy)ethyl)amino)-3H-spiro[isobenzofuran-1,9′-xanthen]-3-one]	–	5-10
CN(C)C(=O)[C@@H]1CCN1c1ccc2c(c1)Oc1cc(N3CC[C@H]3C(=O)N(C)C)ccc1C21C(=[N+]=[N-])C(=O)c2ccc(C(=O)NCCOCCOCCCCCCCl)cc21 [Example 14, (2S,2′S)-1,1′-(6-((2-(2-((6-chlorohexyl)oxy)ethoxy)ethyl)carbamoyl)-2-diazo-3-oxo-2,3-dihydrospiro[indene-1,9′-xanthene]-3′,6′-diyl)bis(N,N-dimethylazetidine-2-carboxamide)]	>10	>10
